Data: patent US6852759B2, “Process for the synthesis of trans-alkenoic acids, use thereof” (priority 2002, dated 2005)
Marks after values point to notes of the source that are not given here.

Columns and labels:
[1] = tested on: CCl4 induced hepatic injury in rats; experiment: Hepatoprotective activity, prophylactic study, CCl4; type: in vivo
[2] = tested on: alcohol induced hepatic damage in rats; experiment: Hepatoprotective activity against alcohol induced hepatic damage (serum and hepatic parameters); type: in vivo; settings: for Hepatic Protein % change: only change and not protection
[3] = 12.5 mg/kg p.o. + CCl4, prophylactic
[4] = 25 mg/kg p.o. + CCl4, prophylactic
[5] = 50 mg/kg p.o. + CCl4, prophylactic
[6] = 100 mg/kg p.o. + CCl4, prophylactic
[7] = TCA alone 100 mg/kg p.o., no CCl4, prophylactic study

In the case of `CCCCCCCC/C=C/CCCCCCCCCCCCCC(=O)O` [TCA, t-Tetracos-15-enoic acid], the “Serum ALP” value [1, 3] is reported as 45.25 ± 2.37^NS μmole of p-nitrophenol formed/min/L, the “Serum ALP, hepatoprotective activity percent” value [1, 3] is reported as “(26.32 ± 6.55) percent” and the “Serum Bilirubin” value [1, 3] is reported as 0.47 ± 0.01 mg %. For the same molecule, the “Serum Bilirubin, hepatoprotective activity percent” value [1, 3] was “(47.98 ± 2.02) percent”, the “Serum GOT” value [1, 3] was 695.16 ± 67.28 Units and the “Serum GOT, hepatoprotective activity percent” value [1, 3] was “(33.87 ± 7.99) percent”. For the same molecule, the “Serum GPT” value [1, 3] was 992.34 ± 73.25 Units, the “Serum GPT, hepatoprotective activity percent” value [1, 3] was “(41.52 ± 4.97) percent” and the “Serum Triglycerides” value [1, 3] was 13.51 ± 0.51^NS mg %. For the same molecule, the “Serum Triglycerides, hepatoprotective activity percent” value [1, 3] was “(26.40 ± 7.84) percent”, the “Serum ALP” value [1, 4] was 39.48 ± 2.46 μmole of p-nitrophenol formed/min/L and the “Serum ALP, hepatoprotective activity percent” value [1, 4] was “(43.28 ± 7.81) percent”. The “Serum Bilirubin” value [1, 4] was 0.42 ± 0.01 mg %, the “Serum Bilirubin, hepatoprotective activity percent” value [1, 4] was “(55.33 ± 2.86) percent” and the “Serum GOT” value [1, 4] was 674.44 ± 53.20 Units. The “Serum GOT, hepatoprotective activity percent” value [1, 4] was “(36.33 ± 6.32) percent”, the “Serum GPT” value [1, 4] was 924.39 ± 39.82 Units and the “Serum GPT, hepatoprotective activity percent” value [1, 4] was “(46.10 ± 2.70) percent”. For the same molecule, the “Serum Triglycerides” value [1, 4] was 12.11 ± 0.70^NS mg %, the “Serum Triglycerides, hepatoprotective activity percent” value [1, 4] was “(47.72 ± 11.33) percent” and the “Serum ALP” value [1, 5] was 35.19 ± 2.90 μmole of p-nitrophenol formed/min/L. The “Serum ALP, hepatoprotective activity percent” value [1, 5] was “(56.81 ± 9.15) percent”, the “Serum Bilirubin” value [1, 5] was 0.34 ± 0.01 mg % and the “Serum Bilirubin, hepatoprotective activity percent” value [1, 5] was “(67.67 ± 2.30) percent”. The “Serum GOT” value [1, 5] was 543.99 ± 79.93 Units, the “Serum GOT, hepatoprotective activity percent” value [1, 5] was “(51.82 ± 9.94) percent” and the “Serum GPT” value [1, 5] was 636.69 ± 44.49 Units. For the same molecule, the “Serum GPT, hepatoprotective activity percent” value [1, 5] was “(65.66 ± 3.02) percent”, the “Serum Triglycerides” value [1, 5] was 11.89 ± 0.75^NS mg % and the “Serum ALP” value [1, 6] was 30.14 ± 2.54 μmole of p-nitrophenol formed/min/L. The “Serum ALP, hepatoprotective activity percent” value [1, 6] was “(72.92 ± 8.07) percent”, the “Serum Bilirubin” value [1, 6] was 0.26 ± 0.02 mg % and the “Serum Bilirubin, hepatoprotective activity percent” value [1, 6] was “(79.04 ± 3.57) percent”. For the same molecule, the “Serum GOT” value [1, 6] was 432.08 ± 37.38 Units, the “Serum GOT, hepatoprotective activity percent” value [1, 6] was “(65.10 ± 4.50) percent” and the “Serum GPT” value [1, 6] was 419.72 ± 17.60 Units. For the same molecule, the “Serum GPT, hepatoprotective activity percent” value [1, 6] was “(80.39 ± 1.19) percent”, the “Serum Triglycerides” value [1, 6] was 11.20 ± 0.68^NS mg % and the “Serum Triglycerides, hepatoprotective activity percent” value [1, 6] was “(61.75 ± 1.44) percent”. The “Serum ALP” value [1, 7] was 23.15 ± 2.92 μmole of p-nitrophenol formed/min/L, the “Serum Bilirubin” value [1, 7] was 0.17 ± 0.02 mg % and the “Serum GOT” value [1, 7] was 110.53 ± 25.55 Units. For the same molecule, the “Serum GPT” value [1, 7] was 102.66 ± 28.41 Units, the “Serum Triglycerides” value [1, 7] was 6.98 ± 0.79 mg % and the “Hepatic G-6-Pase” value ([2]; 25 mg/kg + Alcohol) was 2.19 ± 0.465 Units/g. The “Hepatic G-6-Pase % Protection” value ([2]; 25 mg/kg + Alcohol) was 73%, the “Hepatic Protein” value ([2]; 25 mg/kg + Alcohol) was 172 ± 20.430 Mg/g and the “Hepatic SDII” value ([2]; 25 mg/kg + Alcohol) was 7.79 ± 0.272 Units/G. The “Hepatic SDII % Protection” value ([2]; 25 mg/kg + Alcohol) was 14%, the “Hepatic TG” value ([2]; 25 mg/kg + Alcohol) was 14.75 ± 0.60 Mg/g and the “Hepatic TG % change” value ([2]; 25 mg/kg + Alcohol) was −3.10%. The “Hepatic Protein % change” value ([2]; 25 mg/kg + Alcohol) was −3.9%, the ALF ([2]; 25 mg/kg + Alcohol, serum) was 16.00 ± 2.04 U/I and the “ALF % Protection” value ([2]; 25 mg/kg + Alcohol, serum) was 80.00%. The GGT ([2]; 25 mg/kg + Alcohol, serum) was 1.90 ± 0.447 IU/I, the “GGT % Protection” value ([2]; 25 mg/kg + Alcohol, serum) was 63.00% and the SGOT ([2]; 25 mg/kg + Alcohol, serum) was 310.00 ± 30.36**^β U/I. The “SGOT % Protection” value ([2]; 25 mg/kg + Alcohol, serum) was 77.29%, the SGPT ([2]; 25 mg/kg + Alcohol, serum) was 234.00 ± 8.80**^β U/I and the “SGPT % Protection” value ([2]; 25 mg/kg + Alcohol, serum) was 57.33%. The “Serum Protein” value ([2]; 25 mg/kg + Alcohol, serum) was 16.90 ± 3.38 G/dl, the “Serum Protein % Protection” value ([2]; 25 mg/kg + Alcohol, serum) was 44.40% and the “Hepatic G-6-Pase” value ([2]; 50 mg/kg + Alcohol) was 2.20 ± 2.223 Units/g. For the same molecule, the “Hepatic G-6-Pase % Protection” value ([2]; 50 mg/kg + Alcohol) was 75%, the “Hepatic Protein” value ([2]; 50 mg/kg + Alcohol) was 174 ± 2.11 Mg/g and the “Hepatic SDII” value ([2]; 50 mg/kg + Alcohol) was 8.24 ± 0.390 Units/G. For the same molecule, the “Hepatic SDII % Protection” value ([2]; 50 mg/kg + Alcohol) was 43%, the “Hepatic TG” value ([2]; 50 mg/kg + Alcohol) was 15.44 ± 1.073 Mg/g and the “Hepatic TG % change” value ([2]; 50 mg/kg + Alcohol) was 1.40%. For the same molecule, the “Hepatic Protein % change” value ([2]; 50 mg/kg + Alcohol) was −2.80%, the ALF ([2]; 50 mg/kg + Alcohol, serum) was 14.60 ± 2.82***^β U/I and the “ALF % Protection” value ([2]; 50 mg/kg + Alcohol, serum) was 95.00%. The GGT ([2]; 50 mg/kg + Alcohol, serum) was 1.54 ± 0.128 IU/I, the “GGT % Protection” value ([2]; 50 mg/kg + Alcohol, serum) was 90.00% and the SGOT ([2]; 50 mg/kg + Alcohol, serum) was 295.00 ± 34.39**^β U/I. The “SGOT % Protection” value ([2]; 50 mg/kg + Alcohol, serum) was 101.09%, the “SGPT % Protection” value ([2]; 50 mg/kg + Alcohol, serum) was 73.86% and the “Serum Protein” value ([2]; 50 mg/kg + Alcohol, serum) was 12.60 ± 3.09 G/dl. For the same molecule, the “Serum Protein % Protection” value ([2]; 50 mg/kg + Alcohol, serum) was 7.70%.
